Experimental data as given in patent US8372832B2 (priority 2006, dated 2013).

Biological target: α7-subtype of nicotinic receptors (Rattus norvegicus, UniProt Q05941)
Assay: biochemical
Type: binding

Chain of α7-subtype of nicotinic receptors (Q05941 23-502): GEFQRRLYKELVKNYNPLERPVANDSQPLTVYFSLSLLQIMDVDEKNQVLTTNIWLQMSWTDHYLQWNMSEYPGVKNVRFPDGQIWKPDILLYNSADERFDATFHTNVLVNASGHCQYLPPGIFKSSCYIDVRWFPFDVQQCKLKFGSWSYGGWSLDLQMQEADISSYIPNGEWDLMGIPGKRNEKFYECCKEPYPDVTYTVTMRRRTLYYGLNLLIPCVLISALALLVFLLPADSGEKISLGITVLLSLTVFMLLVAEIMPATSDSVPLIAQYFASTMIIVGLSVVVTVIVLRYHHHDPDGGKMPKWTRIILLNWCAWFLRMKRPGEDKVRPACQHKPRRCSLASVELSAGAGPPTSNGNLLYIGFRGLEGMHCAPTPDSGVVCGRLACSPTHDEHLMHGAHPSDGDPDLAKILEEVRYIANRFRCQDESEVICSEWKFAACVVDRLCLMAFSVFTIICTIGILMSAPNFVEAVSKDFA

In the case of Brc1ccc(-c2nnc(N3CCN4CCC3CC4)o2)o1 [Compound A1, 4-[5-(5-Bromo-furan-2-yl)-[1,3,4]oxadiazol-2-yl]-1,4-diaza-bicyclo[3.2.2]nonane], the IC50 is reported as under 10 nM.
